From patent publication US20150352075A1, “Treatment of Alzheimer's and Cognitive Impairment With Andrographolides” (INNOBIOSCIENCE, LLC, priority 2013, published 2015)

Assays:
[1] = tested on: Wnt/β-catenin pathway in hippocampal slices; assay: Wnt pathway mechanism in hippocampal slices (sFRP, Dkk-1, Dvl-3 mobility shift, time course); type: cell-based, mice; conditions: for time at which total levels of β-catenin increased: slices from 2 month-old wild-type mice, 5 μM ANDRO, Wnt3a conditioned medium or 10 μM 6-B10
Experimental: Slice preparation. […] Transverse slices (250-300 μm) from the dorsal hippocampus were cut under oxygen-saturated cold artificial cerebrospinal fluid using a Vibroslice microtome (VSL, World Precision Instruments, Inc WPI, Sarasota, Fla.). After obtained, slices were incubated in ACSF for at least than one hour at room temperature, in order to stabilize activity. In every moment during dissection, slicing and experimentation slices were oxygenated with 95% oxygen-5% carbon dioxide.
Briefly, tissues were homogenized in RIPA buffer (10 mM Tris-Cl, pH 7.4, EDTA 5 mM, 1% NP-40, 1% sodium deoxycholate, and 1% SDS) supplemented with a protease inhibitor mixture (1 mM PMSF, 2 μg/mL aprotinin, 1 μg/mL pepstatin and 10 μg/mL benzamidine) and phosphatase inhibitors (25 mMNaF, 100 mM Na3VO4, 1 mM EDTA and 30 μM Na4P207) using a Potter homogenizator and then passed sequentially through different caliber syringes. […] Protein concentration was determined using the BCA Protein Assay Kit (Pierce). Samples were resolved by […] 10% SDS-PAGE and transferred to a PVDF membrane. The reactions were followed by incubation with anti-mouse, anti-goat or anti-rabbit IgG peroxidase conjugated (Pierce, Rockford, Ill.) and developed using an ECL kit (Western Lightning Plus ECL, PerkinElmer).

[2] = tested on: CA3-CA1 connections in hippocampal slices; assay: Electrophysiology (fEPSP, PPF, LTP, LTD) in Wt hippocampal slices; type: cell-based, mice; conditions: hippocampal slices, LFS
Experimental: Slices were transferred to an experimental chamber (2 ml), superfused (3 ml/min, at 20-22° C.) with gassed ACSF and visualized by trans-illumination with a binocular microscope (MSZ-10, Nikon, Melville, N.Y.). […] The stimulation was in the Stratum Radiatum within 100-200 μm from the recording site. The paired pulse facilitation index was calculated by ((R2−R1)/R1), where R1 and R2 were the peak amplitudes of the first and second fEPSP respectively. To generate LTP we used Theta Burst Stimulation (TBS) consisting of 5 trains of stimulus with an inter-train interval of 20 s. Each train consisted of 10 bursts at 5 Hz and each burst having 4 pulses at 100 Hz. To generate LTD we used Low Frequency Stimulation (LFS) consisting in 900 paired pulses at 1 Hz. Recordings were filtered at 2.0-3.0 kHz, sampled at 4.0 kHz using an A/D converter, and stored with pClamp 10 (Molecular Devices). Evoked postsynaptic responses were analyzed off-line, using an analysis software (pClampfit, Molecular Devices), which allowed visual detection of events, computing only those events that exceeded and arbitrary threshold.

[3] = tested on: HEK293T cells; assay: TOPflash/FOPflash luciferase reporter assay; type: cell-based
Experimental: 150,000 HEK293T cells were seeded in triplicate per condition and kept for 24 hours at 37° C. with 5% CO2. The cultures were transfected with TOPflash or FOPflash (400 ng), which are firefly-luciferase reporter DNA constructs (Milipore), using LipofectAMINE 2000 (Invitrogen). To control for transfection pRL-TK (10 ng) was included in all transfections. […] Values were normalized by the renilla value from the same well. To statistically compare treatments ANOVA was used.

[4] = tested on: Wnt target genes in cultured hippocampal neurons; assay: PCR array of Wnt target genes in hippocampal neurons; type: cell-based, rat
Experimental: Primary culture of rat hippocampal neurons. […] PCR-ARRAY. RNA from hippocampal neurons was extracted using Trizol. Quantification and purity of RNA preparations were checked by absorbance using Nanodrop ND-2000. Only preparations with a 260/280 nm ratio ≧1.8, a 260/230 nm ratio ≧1.7 and no sign of RNA degradations, verified by agarose gel electrophoresis with Gel Red™ were used. Genomic DNA was degraded. Using RT2First-Strand cDNA Synthesis kit (SuperArray), 1 ng total RNA was reverse transcribed and then real-time PCR was performed by adding cDNA directly to PCR Master Mix, containing SYBR Green and ROX. The mixtures were then aliquoted into a 96-well PCR array plates, which profiles the expression of 84 Wnt target genes from rat. The PCR was run on ABI StepOnePlus, with 1 cycle of 10 min at 95° C. followed by 40 cycles of 15s at 95° C. and 1 min at 60° C. […] Treatment of neuronal cultures. Primary hippocampal cultures of neurons 14 DIV were washed twice in neurobasal medium and maintained for 1 hour. Next ANDRO (10 μM) and 6-BIO (10 μM) were added to different time periods.

In the case of O=C1Nc2cc(Br)ccc2/C1=C1/Nc2ccccc2/C1=N\O [6-B10, 6-bromoindirubin-3′-oxime, reference compound], the “speed of increase in GSK3β pSer-9 and decrease in pTyr-216” value ([1]; compared to Wnt-3a treatment) is reported as “faster”, the “time at which total levels of β-catenin increased” value [1] is reported as 15 min and the “induction of LTD” value [2] is reported as “complete inhibition of the induction of LTD”. For the same molecule, the FOPflash reporter activity ([3]; 10 μM, 24 h) was “not in the FOPflash”, the TOPflash reporter activity ([3]; 10 μM, 24 h) was “significant increase in the TOPflash” and the “increase of luciferase reporter over control” value ([3]; HEK293T, TOPflash) was roughly 6 fold. For the same molecule, the Cdh-1 gene expression [4] was “does not by 6-B10”, the “number of Wnt target genes specifically modulated” value ([4]; 9 h, of the 86 genes analyzed) was 4 genes and the “number of modulated Wnt target genes shared by both treatments” value ([4]; 9 h, of the 86 genes analyzed) was 4.

B1: Wnt-3a: conditioned medium of Wnt3a ligand, the canonical Wnt ligand (protein, UniProt P56704 19-352, looked up)
Protein Wnt-3a: SYPIWWSLAVGPQYSSLGSQPILCASIPGLVPKQLRFCRNYVEIMPSVAEGIKIGIQECQHQFRGRRWNCTTVHDSLAIFGPVLDKATRESAFVHAIASAGVAFAVTRSCAEGTAAICGCSSRHQGSPGKGWKWGGCSEDIEFGGMVSREFADARENRPDARSAMNRHNNEAGRQAIASHMHLKCKCHGLSGSCEVKTCWWSQPDFRAIGDFLKDKYDSASEMVVEKHRESRGWVETLRPRYTYFKVPTERDLVYYEASPNFCEPNPETGSFGTRDRTCNVSSHGIDGCDLLCCGRGHNARAERRREKCRCVFHWCCYVSCQECTRVYDVHTCK
modifications: conditioned medium
For B1, the “inhibition of β-catenin accumulation by Wnt antagonists sFRP and Dkk-1” value ([1]; antagonist 15 min prior, 5 μM ANDRO or Wnt3a conditioned medium for 1 h) was “inhibit the accumulation of β-catenin in the presence of Wnt3a” and the “time at which total levels of β-catenin increased” value [1] was 45 min.
